Source: US20240025862A1, “SUBSTITUTED N-PHENYLURACILS AND SALTS THEREOF, AND USE THEREOF AS HERBICIDAL ACTIVE SUBSTANCES” (Bayer Aktiengesellschaft, priority 2020, published 2024)

Assays:
Assay type in all cases: in vivo
[1] = system: Abutilon theophrasti (ABUTH); test: Post-emergence herbicidal action, greenhouse pot test; conditions: rated visually after about 3 weeks vs untreated controls, 100% = plants have died
Summary of the method: (§1)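 Greenhouse-grown weeds in sandy loam were sprayed post-emergence at the one-leaf stage, 2–3 weeks after sowing. Compounds were formulated as WP or EC in water with 0.5% additive at 600 l/ha, at rates of 20 g/ha or less. Visual rating after about 3 weeks used a scale from 0% (like untreated control) to 100% (plants dead).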

[2] = system: Amaranthus retroflexus (AMARE); test: as above; conditions: rated visually after about 3 weeks vs untreated controls, 100% = plants have died
Summary of the method: as §1

[3] = system: Pharbitis purpurea (PHBPU); test: as above; conditions: dosage 5 g/ha
Summary of the method: as §1

[4] = system: Polygonum convolvulus (POLCO); test: as above; conditions: dosage 5 g/ha
Summary of the method: as §1

[5] = system: Veronica persica (VERPE); test: as above
Summary of the method: as §1

[6] = system: Viola tricolor (VIOTR); test: as above
Summary of the method: as §1

[7] = system: Alopecurus myosuroides (ALOMY); test: Post-emergence herbicidal action, greenhouse pot test (also comparative test C); conditions: rated visually after about 3 weeks vs untreated controls, 100% = plants have died
Summary of the method: (§2)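 Green parts of one-leaf-stage plants are sprayed at 600 l/ha with formulated compound plus 0.5% additive, then kept under optimum greenhouse conditions for about 3 weeks. Damage is scored visually, where 100% means dead plants and 0% means no difference from controls.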

[8] = system: Echinochloa crus-galli (ECHCG); test: as above; conditions: dosage 5 g/ha
Summary of the method: as §2

[9] = system: Matricaria inodora (MATIN); test: as above
Summary of the method: as §2

[10] = system: Setaria viridis (SETVI); test: as above
Summary of the method: as §2

[11] = system: Brassica napus (BRSNW); test: Post-emergence crop plant compatibility, greenhouse pot test; conditions: 1.25 g/ha, vs untreated controls
Summary of the method: (§3)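 Percent crop injury was judged by eye roughly three weeks after treatment, relative to untreated plants, where 100% meant death. Application was a post-emergence spray at the one-leaf stage, 600 l/ha water volume with 0.5% additive; letters a, b, c denote differing dose rates.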

[12] = system: Triticum aestivum (TRZAS); test: as above; conditions: 1.25 g/ha, vs untreated controls
Summary of the method: as §3

[13] = system: Oryza sativa (ORYSA); test: Post-emergence crop plant compatibility, greenhouse pot test (also comparative test C); conditions: vs untreated controls
Summary of the method: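 Rice and other crops sprayed post-emergence at one-leaf stage (2–3 weeks after sowing) with WP or EC formulations plus 0.5% additive at 600 l/ha water. Visual rating about 3 weeks later versus untreated controls (100% = dead, 0% = like control); suffixes a–c denote different doses.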

[14] = system: Abutilon theophrasti (ABUTH); test: Pre-emergence herbicidal action, greenhouse pot test; conditions: scored after about 3 weeks
Text: (§4) Seeds of monocotyledonous and dicotyledonous weed plants and crop plants were placed in plastic or organic planting pots and covered with soil. The compounds of the invention, formulated in the form of wettable powders (WP) or as emulsion concentrates (EC), were then applied to the surface of the covering soil as aqueous suspension or emulsion with addition of 0.5% additive at a water application rate equivalent to 600 l/ha (converted). After the treatment, the pots were placed in a greenhouse and kept under good growth conditions for the test plants. After about 3 weeks, the effect of the preparations was scored visually in comparison with untreated controls as percentages. For example, 100% activity=the plants have died, 0% activity=like control plants.
(§5) Tables B1 to B10 below show the effects of selected compounds of the general formula (I) according to Tables I.1 to I.33 on various harmful plants and at an application rate corresponding to 80 g/ha and less, which were obtained by the experimental method specified above. The appendices “a”, “b” and “c” give differentiation by different dosage with otherwise the same harmful plants tested.

[15] = system: Alopecurus myosuroides (ALOMY); test: as above; conditions: scored after about 3 weeks
Text: as §4, §5

[16] = system: Amaranthus retroflexus (AMARE); test: as above; conditions: scored after about 3 weeks
Text: as §4, §5

[17] = system: Avena fatua (AVEFA); test: as above; conditions: 80 g/ha, scored after about 3 weeks
Text: as §4, §5

[18] = system: Digitaria sanguinalis (DIGSA); test: as above; conditions: scored after about 3 weeks
Text: as §4, §5

[19] = system: Echinochloa crus-galli (ECHCG); test: as above; conditions: scored after about 3 weeks
Text: as §4, §5

[20] = system: Lolium rigidum (LOLRI); test: as above; conditions: scored after about 3 weeks
Text: as §4, §5

[21] = system: Matricaria inodora (MATIN); test: as above; conditions: scored after about 3 weeks
Text: as §4, §5

[22] = system: Pharbitis purpurea (PHBPU); test: as above; conditions: scored after about 3 weeks
Text: as §4, §5

[23] = system: Veronica persica (VERPE); test: as above; conditions: scored after about 3 weeks
Text: as §4, §5

[24] = system: Glycine max (GLXMA); test: Pre-emergence crop plant compatibility, greenhouse pot test; conditions: 20 g/ha
Text: as §4
(§6) The observed effects on selected crop plants are reported here in comparison to the untreated controls (values in %).

[25] = system: Zea mays (ZEAMX); test: as above; conditions: 20 g/ha
Text: as §4, §6

**Q.** `COCCOCCOC(=O)COc1ccccc1Oc1cc(-n2c(=O)cc(C(F)(F)F)n(C)c2=O)c(F)cc1Cl` [I.7-23] was tested. Which “Post-emergence action at 1.25 g/ha against ABUTH in %” value ([1]; 1.25 g/ha) did it give?
**A.** 100%

**Q.** What about the “Post-emergence action at 5 g/ha against ABUTH in %” value ([1]; 5 g/ha) of the same compound?
**A.** 100%

**Q.** What about the “Post-emergence action at 1.25 g/ha against AMARE in %” value ([2]; 1.25 g/ha) of the same compound?
**A.** 100%

**Q.** What about the “Post-emergence action at 5 g/ha against AMARE in %” value ([2]; 5 g/ha) of the same compound?
**A.** 100%

**Q.** And the “Post-emergence action against PHBPU in %” value [3]?
**A.** 100%

**Q.** What about the “Post-emergence action against POLCO in %” value [4] of the same compound?
**A.** 100%

**Q.** What about the “Post-emergence action against VERPE” value ([5]; 1.25 g/ha) of the same compound?
**A.** 90%

**Q.** What about the “Post-emergence action against VERPE” value ([5]; 5 g/ha) of the same compound?
**A.** 100%

**Q.** What about the “Post-emergence action against VIOTR” value ([6]; 1.25 g/ha) of the same compound?
**A.** 100%

**Q.** And the “Post-emergence action against VIOTR” value ([6]; 5 g/ha)?
**A.** 100%

**Q.** And the “Post-emergence action at 1.25 g/ha against ALOMY in %” value ([7]; 1.25 g/ha)?
**A.** 80%

**Q.** And the “Post-emergence action at 5 g/ha against ALOMY in %” value ([7]; 5 g/ha)?
**A.** 100%

**Q.** What about the “Post-emergence action against ECHCG in %” value [8] of the same compound?
**A.** 100%

**Q.** What about the “Post-emergence action against MATIN in %” value ([9]; dosage 1.25 g/ha) of the same compound?
**A.** 90%

**Q.** And the “Post-emergence action against MATIN in %” value ([9]; dosage 5 g/ha)?
**A.** 100%

**Q.** And the “Post-emergence action against SETVI in %” value ([10]; dosage 1.25 g/ha)?
**A.** 100%

**Q.** What about the “Post-emergence action against SETVI in %” value ([10]; dosage 5 g/ha) of the same compound?
**A.** 100%

**Q.** And the “Post-emergence action against BRSNW (crop plant compatibility)” value [11]?
**A.** 20%

**Q.** What about the “Post-emergence action against TRZAS (crop plant compatibility)” value [12] of the same compound?
**A.** 10%

**Q.** What about the “Post-emergence action against ORYSA (crop plant compatibility)” value ([13]; 1.25 g/ha) of the same compound?
**A.** 10%

**Q.** And the “Post-emergence action against ORYSA (crop plant compatibility)” value ([13]; 5 g/ha)?
**A.** 20%

**Q.** And the “Pre-emergence action against ABUTH in %” value ([14]; 20 g/ha)?
**A.** 100%

**Q.** What about the “Pre-emergence action against ABUTH in %” value ([14]; 80 g/ha) of the same compound?
**A.** 100%

**Q.** What about the “Pre-emergence action against ALOMY in %” value ([15]; 20 g/ha) of the same compound?
**A.** 90%

**Q.** What about the “Pre-emergence action against ALOMY in %” value ([15]; 80 g/ha) of the same compound?
**A.** 100%

**Q.** What about the “Pre-emergence action against AMARE in %” value ([16]; 20 g/ha) of the same compound?
**A.** 100%

**Q.** And the “Pre-emergence action against AMARE in %” value ([16]; 80 g/ha)?
**A.** 100%

**Q.** What about the “Pre-emergence action against AVEFA in %” value [17] of the same compound?
**A.** 90%

**Q.** What about the “Pre-emergence action against DIGSA in %” value ([18]; 20 g/ha) of the same compound?
**A.** 100%

**Q.** And the “Pre-emergence action against DIGSA in %” value ([18]; 80 g/ha)?
**A.** 100%

**Q.** What about the “Pre-emergence action against ECHCG in %” value ([19]; 20 g/ha) of the same compound?
**A.** 80%

**Q.** What about the “Pre-emergence action against ECHCG in %” value ([19]; 80 g/ha) of the same compound?
**A.** 90%

**Q.** And the “Pre-emergence action against LOLRI in %” value ([20]; 20 g/ha)?
**A.** 90%

**Q.** And the “Pre-emergence action against LOLRI in %” value ([20]; 80 g/ha)?
**A.** 100%

**Q.** What about the “Pre-emergence action against MATIN in %” value ([21]; 20 g/ha) of the same compound?
**A.** 100%

**Q.** What about the “Pre-emergence action against MATIN in %” value ([21]; 80 g/ha) of the same compound?
**A.** 100%

**Q.** And the “Pre-emergence action against PHBPU in %” value ([22]; 20 g/ha)?
**A.** 100%

**Q.** And the “Pre-emergence action against PHBPU in %” value ([22]; 80 g/ha)?
**A.** 100%

**Q.** What about the “Pre-emergence action against VERPE in %” value ([23]; 20 g/ha) of the same compound?
**A.** 100%

**Q.** And the “Pre-emergence action against VERPE in %” value ([23]; 80 g/ha)?
**A.** 100%

**Q.** And the “Pre-emergence action against GLXMA in %” value [24]?
**A.** 10%

**Q.** And the “Pre-emergence action against ZEAMX in %” value [25]?
**A.** 20%
